From PubChem BioAssay AID2060513 (Molecular Pharmacology Branch, DTP, NCI, 2025)

Tested on: 299254-011-R-J1-PDC complex spheroids viability
Experiment: Anticancer human tumor 299254-011-R-J1-PDC patient-derived melanoma cell line growth inhibition [GQUAD]
Conditions: for IC50: curve of first compound; for viability, T/C: stronger effect = lower value
Source text: DNA G-quadruplex Stabilizer Agents in Combinations in Complex Spheroids
A high-throughput screen of multi-cell type tumor spheroids was designed to identify active combinations of DNA G-quadruplex stabilizer agents and targeted small molecules. Complex spheroids include a stromal component modeled by human endothelial cells (HUVEC) and fibroblasts modeled by human mesenchymal stem cells (MSCs). The concentration ranges selected for each drug and investigational agent were based upon clinically achievable concentrations if the clinical Cmax of the agent was known.
Compounds. The drugs and investigational agents: pidnarulex (CX-5461; NSC782164), APTO-253 (NSC789042), BRACO-19 (NSC847499), peposertib (NSC802822), ceralasertib (NSC780249), elimusertib (NSC800525), camonsertib (NSC841442), AZD-1390 (NSC803789), olaparib (NSC753686), talazoparib (NSC767125), ART-558 (NSC835418), sotorasib (NSC818433), MRTX-1133 (NSC836407), SN-38 (NSC673596), topotecan (NSC609699), etoposide (NSC141540), doxorubicin (NSC123127), gemcitabine (NSC613327), 5-fluorouracil (NSC19893), paclitaxel (NSC125973), vemurafenib (NSC761431), panobinostat (NSC761190), R-306465 (JNJ-16241199; NSC773264), adavosertib (NSC754352), TP-3654 (NSC805149), carboplatin (NSC241240), KSQ-4279 (NSC840948), and staurosporine (NSC755774) were obtained from the National Cancer Institute (NCI) Developmental Therapeutics Program Chemical Repository (34). The FDA-approved anticancer drug set is available from the NCI Developmental Therapeutics Program. […] The stock solutions were prepared in dimethyl sulfoxide (DMSO, Sigma-Aldrich, St. Louis, MO, cat. D2650) at 800-fold the tested concentration and stored at -70 degrees C prior to their use. All drugs and investigational agents were tested over a range starting from a high concentration at or near the clinical Cmax and decreasing in half-log increments. If the clinical Cmax for an agent had not been determined, the highest concentration tested was 10 microM.
2.3 Cell Culture. All cells were maintained in an incubator at 37 degrees C and 5% CO2 with 95% humidity. The PDC lines were cultured according to standard operating procedures established by the NCI PDMR. All PDCs were thawed and cultured in Matrigel-coated flasks prepared with a working solution of 1X Ham's F-12 nutrient mix, without supplementation (Invitrogen, cat. 11765054), 100 U/mL penicillin-streptomycin (Invitrogen, cat. 15140122), and 2.5% Matrigel (Corning Inc., cat. 354248) for the first three passages. The 857933-349-R-J2-PDC line was cultured in 6C/Colon 1B media, which includes advanced DMEM/F-12 (Thermo Fisher Scientific, cat. 12634028), 10 mM HEPES (Thermo Fisher Scientific, cat. 15630080), 1X GlutaMAX supplement (Thermo Fisher Scientific, cat. 35050061), 0.1 mg/mL primocin (InvivoGen, cat. ant-pm-2), 10% defined fetal bovine serum, heat inactivated (HyClone Laboratories Inc., cat. SH30070.03HI), 50% L-WRN conditioned media (ATCC, cat. CRL-3276), 1.25 mM N-Acetyl-L-cysteine (Sigma-Aldrich, cat. A9165), 10 mM nicotinamide (Sigma-Aldrich, cat. N0636), 1X B-27 supplement (Thermo Fisher Scientific, cat. 17504044), 1X N-2 supplement (Thermo Fisher Scientific, cat. 17502048), 10 microM Y-27632 dihydrochloride (Tocris Bioscience, cat. 1254), and 50 ng/mL human EGF recombinant protein (Thermo Fisher Scientific, cat. PHG0311). The 485176-168-R4-J1-PDC line was cultured in Panc media, which includes all 6C/Colon 1B media components plus 100 ng/mL human FGF-10 (Thermo Fisher Scientific, cat. 100-26), 500 nM SB-431542 (Selleckchem, cat. S1067), and gastrin (Tocris, cat. 3006).
[…]

[1] = second compound 0.0316 µM, first compound 0.0316 µM
[2] = second compound 0.0316 µM, first compound 0.1 µM
[3] = second compound 0.0316 µM, first compound 0.316 µM
[4] = second compound 0.0316 µM, first compound 1 µM
[5] = second compound 0.0316 µM, first compound 3.16 µM
[6] = second compound 0.0316 µM, first compound 10 µM
[7] = second compound 0.1 µM, first compound 0.0316 µM
[8] = second compound 0.1 µM, first compound 0.1 µM
[9] = second compound 0.1 µM, first compound 0.316 µM
[10] = second compound 0.1 µM, first compound 1 µM
[11] = second compound 0.1 µM, first compound 3.16 µM
[12] = second compound 0.1 µM, first compound 10 µM
[13] = second compound 0.316 µM, first compound 0.0316 µM
[14] = second compound 0.316 µM, first compound 0.1 µM
[15] = second compound 0.316 µM, first compound 0.316 µM
[16] = second compound 0.316 µM, first compound 1 µM
[17] = second compound 0.316 µM, first compound 3.16 µM
[18] = second compound 0.316 µM, first compound 10 µM
[19] = second compound 1 µM, first compound 0.0316 µM
[20] = second compound 1 µM, first compound 0.1 µM
[21] = second compound 1 µM, first compound 0.316 µM
[22] = second compound 1 µM, first compound 1 µM
[23] = second compound 1 µM, first compound 3.16 µM
[24] = second compound 1 µM, first compound 10 µM
[25] = second compound 3.16 µM, first compound 0.0316 µM
[26] = second compound 3.16 µM, first compound 0.1 µM
[27] = second compound 3.16 µM, first compound 0.316 µM
[28] = second compound 3.16 µM, first compound 1 µM
[29] = second compound 3.16 µM, first compound 3.16 µM
[30] = second compound 3.16 µM, first compound 10 µM
[31] = second compound 10 µM, first compound 0.0316 µM
[32] = second compound 10 µM, first compound 0.1 µM
[33] = second compound 10 µM, first compound 0.316 µM
[34] = second compound 10 µM, first compound 1 µM
[35] = second compound 10 µM, first compound 3.16 µM
[36] = second compound 10 µM, first compound 10 µM
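Further: spheroids exposed to the agents for seven days before readout.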
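Wherever viability, T/C is given: percent viability relative to DMSO vehicle control wells = 100%.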

Work on `O=C(NO)c1cnc(N2CCN(S(=O)(=O)c3ccc4ccccc4c3)CC2)nc1` + CN(C)c1ccc(Nc2c3ccc(NC(=O)CCN4CCCC4)cc3nc3cc(NC(=O)CCN4CCCC4)ccc23)cc1 yielded an IC50 (second compound 0.0316 µM) of 0.412 µM, an IC50 (second compound 0.1 µM) of 0.447 µM and an IC50 (second compound 0.316 µM) of 0.415 µM. For the same compound, the IC50 (second compound 1 µM) was 0.519 µM, the IC50 (second compound 3.16 µM) was 0.512 µM and the IC50 (second compound 10 µM) was 0.448 µM. For the same compound, the viability, T/C [1] was 111%, the viability, T/C [2] was 90% and the viability, T/C [3] was 65.2%. It also gave a viability, T/C [4] of 3.37%, a viability, T/C [5] of 0.26% and a viability, T/C [6] of 0.29%. The viability, T/C [7] was 103%, the viability, T/C [8] was 91.5% and the viability, T/C [9] was 69.2%. The viability, T/C [10] was 5.67%, the viability, T/C [11] was 0.22% and the viability, T/C [12] was 0.27%. For the same compound, the viability, T/C [13] was 109%, the viability, T/C [14] was 92.7% and the viability, T/C [15] was 65%. For the same compound, the viability, T/C [16] was 3.85%, the viability, T/C [17] was 0.2% and the viability, T/C [18] was 0.27%. The viability, T/C [19] was 112%, the viability, T/C [20] was 93.2% and the viability, T/C [21] was 85%. The viability, T/C [22] was 3.59%, the viability, T/C [23] was 0.21% and the viability, T/C [24] was 0.25%. For the same compound, the viability, T/C [25] was 100%, the viability, T/C [26] was 90.1% and the viability, T/C [27] was 82.3%. The viability, T/C [28] was 5.14%, the viability, T/C [29] was 0.2% and the viability, T/C [30] was 0.24%. For the same compound, the viability, T/C [31] was 115%, the viability, T/C [32] was 85.8% and the viability, T/C [33] was 71%. It also gave a viability, T/C [34] of 3.61%, a viability, T/C [35] of 0.22% and a viability, T/C [36] of 0.26%.

For `C=CC(=O)N1CCN(c2nc(=O)n(-c3c(C)ccnc3C(C)C)c3nc(-c4c(O)cccc4F)c(F)cc23)C(C)C1` (stereo unspecified) + Cc1[nH]c2ccc(F)cc2c1-c1nc2c3cccnc3c3ncccc3c2[nH]1, the IC50 (second compound 0.0316 µM) was > 10 µM, the IC50 (second compound 0.1 µM) was > 10 µM and the IC50 (second compound 0.316 µM) was > 10 µM. The IC50 (second compound 1 µM) was > 10 µM, the IC50 (second compound 3.16 µM) was > 10 µM and the IC50 (second compound 10 µM) was > 10 µM. The viability, T/C [1] was 85%, the viability, T/C [2] was 63.2% and the viability, T/C [3] was 62%. For the same compound, the viability, T/C [4] was 56%, the viability, T/C [5] was 67.1% and the viability, T/C [6] was 75.7%. The viability, T/C [7] was 72.9%, the viability, T/C [8] was 85% and the viability, T/C [9] was 60.5%. For the same compound, the viability, T/C [10] was 56.7%, the viability, T/C [11] was 66.2% and the viability, T/C [12] was 78.3%. It also gave a viability, T/C [13] of 67.3%, a viability, T/C [14] of 80.1% and a viability, T/C [15] of 63.1%. The viability, T/C [16] was 64.6%, the viability, T/C [17] was 74.2% and the viability, T/C [18] was 69.9%. For the same compound, the viability, T/C [19] was 67.8%, the viability, T/C [20] was 69.4% and the viability, T/C [21] was 66.2%. For the same compound, the viability, T/C [22] was 79.8%, the viability, T/C [23] was 63.7% and the viability, T/C [24] was 86.8%. It also gave a viability, T/C [25] of 73%, a viability, T/C [26] of 81.1% and a viability, T/C [27] of 73.8%. For the same compound, the viability, T/C [28] was 78.4%, the viability, T/C [29] was 74.7% and the viability, T/C [30] was 69.9%. For the same compound, the viability, T/C [31] was 74.4%, the viability, T/C [32] was 71.5% and the viability, T/C [33] was 72.5%. For the same compound, the viability, T/C [34] was 67.1%, the viability, T/C [35] was 77.6% and the viability, T/C [36] was 59.4%.

With `Nc1ccn(C2OC(CO)C(O)C2(F)F)c(=O)n1` (stereo unspecified) + Cc1[nH]c2ccc(F)cc2c1-c1nc2c3cccnc3c3ncccc3c2[nH]1 the IC50 (second compound 0.0316 µM) was > 10 µM, the IC50 (second compound 0.1 µM) was 6.46 µM and the IC50 (second compound 0.316 µM) was > 10 µM. The IC50 (second compound 1 µM) was > 10 µM, the IC50 (second compound 3.16 µM) was > 10 µM and the IC50 (second compound 10 µM) was > 10 µM. The viability, T/C [1] was 112%, the viability, T/C [2] was 78.3% and the viability, T/C [3] was 77.8%. The viability, T/C [4] was 74.3%, the viability, T/C [5] was 68.1% and the viability, T/C [6] was 54.6%. The viability, T/C [7] was 128%, the viability, T/C [8] was 94.5% and the viability, T/C [9] was 63.7%. It also gave a viability, T/C [10] of 64.5%, a viability, T/C [11] of 56.5% and a viability, T/C [12] of 59.6%. For the same compound, the viability, T/C [13] was 116%, the viability, T/C [14] was 99.5% and the viability, T/C [15] was 59.8%. For the same compound, the viability, T/C [16] was 70.5%, the viability, T/C [17] was 47.8% and the viability, T/C [18] was 66.9%. The viability, T/C [19] was 117%, the viability, T/C [20] was 112% and the viability, T/C [21] was 72.4%. The viability, T/C [22] was 49%, the viability, T/C [23] was 60.6% and the viability, T/C [24] was 74%. The viability, T/C [25] was 96.4%, the viability, T/C [26] was 97% and the viability, T/C [27] was 70.8%. The viability, T/C [28] was 58.1%, the viability, T/C [29] was 55.4% and the viability, T/C [30] was 52.2%. For the same compound, the viability, T/C [31] was 102%, the viability, T/C [32] was 103% and the viability, T/C [33] was 62.9%. The viability, T/C [34] was 45.6%, the viability, T/C [35] was 59% and the viability, T/C [36] was 49%.
